Entries after “also recorded” stand apart in the source; their conditions may differ.
Key:
[1] = test system: human anterior eye segments; experiment: human anterior segment perfusion organ culture (ex vivo human eye), pressure readings
Protocol: FIG. 1A is a graph of pressure readings obtained from a pair of human anterior eye segments where one eye was treated with a KATP channel opener prodrug (CKLP1) while the fellow anterior segment was treated with vehicle alone. […] FIG. 1B is a graph of pressure change obtained in normotensive C57BL/6 mice following treatment with parent (CKL) and prodrug (CKLP1).

[2] = test system: normotensive C57BL/6 mice; experiment: intraocular pressure change in normotensive mice after treatment; assay type: in vivo, mouse; conditions: for IOP lowering in the presence of Erk1/2 inhibitor U0126: mice (n=10), CKLP1+LFA+U0126; for combination treatment in mice with CKL/CKLP1 and prostaglandin analog LFA (FIG. 2 values, pressure change): alone or combined with latanoprost free acid, additive effects
Protocol: FIG. 1B is a graph of the change in C57BL/6 mice intraocular pressure following treatment with cromakalim in DMSO or CKLP1 in aqueous carrier. FIG. 2 is a graph of the combination treatment in mice with […]1 and prostaglandin showing additive effects. CKL: -12.77±2.38, […]1: -16.11±2.61, CKLP1+LFA: -26.06±2.98. FIG. 1A is a graph of pressure readings obtained from a pair of human anterior eye segments where one eye was treated with a KATP channel opener prodrug (CKLP1) while the fellow anterior segment was treated with vehicle alone. […] FIG. 1B is a graph of pressure change obtained in normotensive C57BL/6 mice following treatment with parent (CKL) and prodrug (CKLP1). […] FIG. 3 is a graph showing the treatment with various forms of CKL. FIG. 4 is a graph showing the treatment of rabbits (n=5) with CKL-P1 in PBS, optically active isomer. FIG. 5 is a graph showing the treatment with ent-CKLP1(5 mM).

rabbits = experiment: treatment of rabbits (intraocular pressure model); assay type: in vivo
Protocol: FIG. 4 is a graph showing the treatment of rabbits with CKL-P1 in PBS, optically active isomer. FIG. 3 is a graph showing the treatment with various forms of CKL. FIG. 4 is a graph showing the treatment of rabbits (n=5) with CKL-P1 in PBS, optically active isomer. FIG. 5 is a graph showing the treatment with ent-CKLP1(5 mM).

rat cortical neurons = experiment: H2O2 oxidative stress in rat cortical neurons, lactate dehydrogenase assayed; assay type: cell-based; conditions: 75 μM H2O2 for 24 hours with and without CKLP1
Excerpt: The present invention also provides a CKLP1 composition used to treat neurons; a CKLP1 composition used for neuroprotection; a method of neuroprotection using a CKLP1 composition; a method of treating neurons using a CKLP1 composition; and methods and compositions for the treatment of ocular hypertension, blindness and loss of vision using a CKLP1 composition. The claimed CKLP1 composition provides neuroprotective properties. […] Therefore, CKLP1 and other prodrugs (as disclosed herein) may represent the first in class treatment for glaucoma that can treat the main risk factor (elevated intraocular pressure) and also the sight of damage (optic nerve).

eyes = experiment: activity in vivo in eyes
Excerpt: The enantiomer of CKLP1 is referred to as “ent-CKLP1”. CKLP1 can be synthesized from levcromakalim while ent-CKLP1 can be synthesized from (+)-cromakalim.

SMILES | IOP lowering in the presence of Erk1/2 inhibitor U0126 [2] | combination treatment in mice with CKL/CKLP1 and prostaglandin analog LFA (FIG. 2 values, pressure change) [2] | activity in vivo in eyes (eyes) | further results
CC1(C)Oc2ccc(C#N)cc2[C@@H](N2CCCC2=O)[C@@H]1OP(=O)(O)O [CKLP1] | not able to lower pressure | −16.11±2.61 | active | pressure in human anterior segment perfusion organ culture ([1]; CKLP1 2 μM, fellow anterior segment treated with vehicle alone): reduction of pressure; also recorded: reduces pressure; activity in ex vivo human eyeball model ([1]; ex vivo human eyeball): good activity; biological activity in normotensive mouse model ([2]; mouse): good activity; activity in rabbit model (rabbits): good activity; H2O2 oxidative stress (lactate dehydrogenase levels) (rat cortical neurons): inhibited H2O2 oxidative stress
O=C(O)CCC/C=C\C[C@@H]1[C@@H](CC[C@@H](O)CCc2ccccc2)[C@H](O)C[C@@H]1O [LFA, latanoprost free acid, reference compound] | can lower IOP | – | – | –
CC1(C)Oc2ccc(C#N)cc2[C@H](N2CCCC2=O)[C@H]1OP(=O)(O)O [ent-CKLP1] | – | – | active | –
CC1(C)Oc2ccc(C#N)cc2C(N2CCCC2=O)C1O (centres unmarked) [CKL, cromakalim, reference compound] | – | −12.77±2.38 | – | –

— patent US12209140B2, “Therapeutics for the treatment of glaucoma” (Mayo Foundation for Medical Education and Research, priority 2014, dated 2025)
